Patent publication US8088806B2 (Achillion Pharmaceuticals, Inc., priority 2005, dated 2012)
Like-named read-outs stand apart in the source and are kept apart here.

Tested on: HCV replicon
Assay: Replicon based assay of HCV replication inhibition (NPT ELISA)
Format: cell-based, Hepatitis C virus
Conditions: Table I, Huh-7 HCV replicon-containing cells, three days, read-out: Activity
Description: Compounds claimed herein are tested for the ability to inhibit viral replication of the Hepatitis C replicon in cultured cells in which the HCV replicon construct has been incorporated. The HCV replicon system was described by Bartenschlager, et. al (Science, 285, pp. 110-113 (1999)). The replicon system is predictive of in vivo anti-HCV activity; compounds that are active in humans uniformly evidence activity in the replicon assay.
In this assay HCV replicon containing cells are treated with different concentrations of the test compound to ascertain the ability of the test compound to suppress replication of the HCV replicon. As a positive control, HCV replicon-containing cells are treated with different concentrations of interferon alpha, a known inhibitor of HCV replication. The replicon assay system includes Neomycin Phosphotransferase (NPT) as a component of the replicon itself in order to detect the transcription of replicon gene products in the host cell. Cells in which the HCV replicon is actively replicating have high levels of NPT; the level of NPT is proportional to HCV replication. […] The NPT level of each sample is measured using a captured ELISA.
A protocol for testing compounds for the ability to inhibit viral replication of the Hepatitis C replicon cultured cells in which the replicon construct has been incorporated, follows.
The HCV replicon contains, 5′-3′, the HCV-IRES, the neomycin phosphotransferase (neo) gene, the IRES of encephalomyocarditis virus, which directs translation of HCV sequences NS3 to NS5B, and the 3′-NTR. The sequence of the HCV replicon has been deposited in GenBank (Accession no. AJ242652).
The replicon is transfected into Huh-7 cells using standard methods such as electroporation.
The equipment and materials include, but are not limited to, Huh-7 HCV replicon-containing cells, maintenance media (DMEM (Dulbecco's modified Eagle media) supplemented with 10% FBS, L-glutamine, non-essential amino acids, penicillin (100 units/ml), streptomycin (100 micrograms/ml), and 500 micrograms/ml of Geneticin (G418), screening media (DMEM supplemented with 10% FBS, L-glutamine, non-essential amino acids, penicillin (100 units/ml) and streptomycin (100 micrograms/ml)), 96 well tissue culture plates (flat bottom), 96 well plates (U bottom for drug dilution), Interferon alpha for positive control, fixation reagent (such as methanol: acetone), primary antibody (rabbit anti-NPTII), secondary antibody: Eu-N1l, and enhancement solution.
The cells are then seeded onto 96-well plates at a density of 6000-7500 cells/100 microliters/well (6-7.5×10^5 cells/10 ml/plate). The plates are then incubated at 37° C. in a 5% CO2 incubator.
HCV replicon-containing cells are rinsed with once PBS once; 2 mls of trypsin are then added. Cells are incubated at 37° C. in a 5% CO2 incubator for 3-5 minutes. 10 mls of complete medium is added to stop the reaction. Cells are blown gently, put into a 15 ml tube, and spun at 1200 rpm for four minutes. The trypsin/medium solution is removed and 5 mls of medium (500 ml DMEM (high glucose)) from BRL catalog #12430-054; 50 mls 10% FBS, 5% Geneticin G418 (50 mg/ml, BRL catalog #10131-035), 5 ml MEM non-essential amino acids (100×BRL #11140-050) and 5 ml pen-strep (BRL # 15140-148) is added. The cells and media are mixed carefully
Cells are plated with screening medium (500 ml DMEM (BRL #21063-029), 50 ml FBS (BRL #10082-147) and 5 ml MEM non-essential amino acid (BRL #11140-050) at 6000-7500 cells/100 μl/well of 96 well plate (6-7.5×10^5 cells/10 ml/plate). Plates are placed into 37° C. 5% CO2 incubator overnight.
The following morning, drugs (test compounds or interferon alpha) are diluted in 96 well U bottom plates with media or DMSO/media, depending on the final concentration chosen for screening. Generally for 6 concentrations of each test compounds ranging from 10 micromolar to 0.03 micromolar are applied. […]

Compound	EC50 (Hepatitis C virus, Huh-7, 72 h) [nM]	EC50 [nM]
CCCCCOc1ccc(Nc2nccs2)cc1C(F)(F)F [compound 1, N-(3-(trifluoromethyl)-4-(pentyloxy)phenyl)thiazol-2-amine]	< 1000	–
CCCCCOc1ccc(Nc2nc(-c3ccc(F)cc3)cs2)cc1C(F)(F)F [compound 2, N-(3-(trifluoromethyl)-4-(pentyloxy)phenyl)-4-(4-fluorophenyl)thiazol-2-amine]	< 1000	–
CCCCCOc1ccc(Nc2nc(-c3ccc(Cl)cc3)cs2)cc1C(F)(F)F [compound 3]	–	< 1000
CCCCCOc1ccc(Nc2nc(-c3ccc(OC(F)F)cc3)cs2)cc1C(F)(F)F [compound 4, 4-(4-(difluoromethoxy)phenyl)-N-(3-(trifluoromethyl)-4-(pentyloxy)phenyl)thiazol-2-amine]	< 1000	–
CCCCCOc1ccc(Nc2nc(C(Cc3ccccc3)NS(=O)(=O)c3ccc(C)cc3)cs2)cc1C(F)(F)F (centres unmarked) [compound 6, N-(3-(trifluoromethyl)-4-(pentyloxy)phenyl)-4-(2-phenyl-1-(tosylamino)ethyl)thiazol-2-amine]	1000 to 10000	–
CCCCCOc1ccc(Nc2nc(-c3cccnc3)cs2)cc1C(F)(F)F [compound 7, N-(3-(trifluorometbyl)-4-(pentyloxy)phenyl)-4-(pyridin-3-yl)thiazol-2-amine]	< 1000	–
CCCCCOc1ccc(Nc2nc(-c3ccc(N4CCCC4)cc3)cs2)cc1C(F)(F)F [compound 8, N-(3-(trifluoromethyl)-4-(pentyloxy)phenyl)-4-(4-(pyrrolidin-1-yl)phenyl)thiazol-2-amine]	< 1000	–
CCCCCOc1ccc(Nc2ncc(Br)s2)cc1C(F)(F)F [compound 9, 5-bromo-N-(3-(trifluoromethyl)-4-(pentyloxy)phenyl)thiazol-2-amine]	< 1000	–
CCCCCOc1ccc(Nc2nc(C(=O)O)cs2)cc1C(F)(F)F [compound 10, 2-(3-(trifluoromethyl)-4-(pentyloxy)phenylamino)thiazole-4-carboxylic acid]	> 10000	–
CCCCCOc1ccc(Nc2nc(C(=O)Nc3ccc(Cl)cc3)cs2)cc1C(F)(F)F [compound 11, 2-(3-(trifluoromethyl)-4-(pentyloxy)phenylamino)-N-(4-chlorophenyl)thiazole-4-carboxamide]	> 10000	–
CCCCCOc1ccc(Nc2nc(-c3ccc(F)cc3)c(C)s2)cc1C(F)(F)F [compound 12, N-(3-(trifluoromethyl)-4-(pentyloxy)phenyl)-4-(4-fluorophenyl)-5-methylthiazol-2-amine]	< 1000	–
CCCCCOc1ccc(Nc2csc(-c3cccnc3)n2)cc1C(F)(F)F [compound 13, N-(3-(trifluoromethyl)-4-(pentyloxy)phenyl)-2-(pyridin-3-yl)thiazol-4-amine]	> 10000	–
CCCCCOc1ccc(Nc2nc(C(=O)Nc3cccnc3)cs2)cc1C(F)(F)F [compound 14, 2-(3-(trifluoromethyl)-4-(pentyloxy)phenylamino)-N-(pyridin-3-yl)thiazole-4-carboxamide]	< 1000	–
CCCCCOc1ccc(Nc2nc(C(=O)Nc3ccc(C#N)cc3)cs2)cc1C(F)(F)F [compound 15, 2-(3-(trifluoromethyl)-4-(pentyloxy)phenylamino)-N-(4-cyanophenyl)thiazole-4-carboxamide]	> 10000	–
CCCCCOc1ccc(Nc2nc(C(=O)Nc3ccc(OC)cc3)cs2)cc1C(F)(F)F [compound 16, 2-(3-(trifluoromethyl)-4-(pentyloxy)phenylamino)-N-(4-methoxyphenyl)thiazole-4-carboxamide]	> 10000	–
CCCCCOc1ccc(Nc2nc(C(=O)Nc3ccc(C(C)(C)C)cc3)cs2)cc1C(F)(F)F [compound 17, 2-(3-(trifluoromethyl)-4-(pentyloxy)phenylamino)-N-(4-tert-butylphenyl)thiazole-4-carboxamide]	> 10000	–
CCCCCOc1ccc(Nc2nc(C(N)=O)cs2)cc1C(F)(F)F [compound 18, 2-(3-(trifluoromethyl)-4-(pentyloxy)phenylamino)thiazole-4-carboxamide]	< 1000	–
CCCCCc1ccc(Nc2nc(-c3ccc(F)cc3)cs2)cc1 [compound 19, 4-(4-fluorophenyl)-N-(4-pentylphenyl)thiazol-2-amine]	< 1000	–

Compound	EC50 (Hepatitis C virus, Huh-7, 72 h) [nM]	EC50 [nM]
CCCCCc1ccc(Nc2nc(-c3ccc(Cl)cc3)cs2)cc1 [compound 20, 4-(4-chlorophenyl)-N-(4-pentylphenyl)thiazol-2-amine]	< 1000	–
CCCCCOc1ccc(Nc2nc(-c3ccc(F)cc3)cs2)cc1 [compound 21, 4-(4-fluorophenyl)-N-(4-(pentyloxy)phenyl)thiazol-2-amine]	< 1000	–
CCCCCc1ccc(Nc2nc(-c3ccc(Cl)c(Cl)c3)cs2)cc1 [compound 22, 4-(3,4-dichlorophenyl)-N-(4-pentylphenyl)thiazol-2-amine]	< 1000	–
CCCCCOc1ccc(Nc2nc(-c3ccc(Cl)c(Cl)c3)cs2)cc1 [compound 24, 4-(3,4-dichlorophenyl)-N-(4-(pentyloxy)phenyl)thiazol-2-amine]	< 1000	–
CCCCCOc1ccc(Nc2nc(-c3ccc(Cl)cc3)cs2)cc1 [compound 26, 4-(4-chlorophenyl)-N-(4-(pentyloxy)phenyl)thiazol-2-amine]	< 1000	–
Fc1ccc(-c2csc(Nc3cccc(OCc4ccccc4)c3)n2)cc1 [compound 27, N-(3-(benzyloxy)phenyl)-4-(4-fluorophenyl)thiazol-2-amine]	< 1000	–
Clc1ccc(-c2csc(Nc3cccc(OCc4ccccc4)c3)n2)cc1Cl [compound 28, N-(3-(benzyloxy)phenyl)-4-(3,4-dichlorophenyl)thiazol-2-amine]	< 1000	–
Clc1ccc(-c2csc(Nc3cccc(OCc4ccccc4)c3)n2)cc1 [compound 30, N-(3-(benzyloxy)phenyl)-4-(4-chlorophenyl)thiazol-2-amine]	< 1000	–
Fc1ccc(-c2csc(Nc3cccc(Oc4ccccc4)c3)n2)cc1 [compound 31, 4-(4-fluorophenyl)-N-(3-phenoxyphenyl)thiazol-2-amine]	< 1000	–
Clc1ccc(-c2csc(Nc3cccc(Oc4ccccc4)c3)n2)cc1Cl [compound 32, 4-(3,4-dichlorophenyl)-N-(3-phenoxyphenyl)thiazol-2-amine]	< 1000	–
Clc1ccc(-c2csc(Nc3cccc(Oc4ccccc4)c3)n2)cc1 [compound 34, 4-(4-chlorophenyl)-N-(3-phenoxyphenyl)thiazol-2-amine]	< 1000	–
Fc1ccc(-c2csc(Nc3cccc(Cc4ccccc4)c3)n2)cc1 [compound 35, N-(3-benzylphenyl)-4-(4-fluorophenyl)thiazol-2-amine]	> 10000	–
Clc1ccc(-c2csc(Nc3cccc(Cc4ccccc4)c3)n2)cc1Cl [compound 36, N-(3-benzylphenyl)-4-(3,4-dichlorophenyl)thiazol-2-amine]	< 1000	–
Clc1ccc(-c2csc(Nc3cccc(Cc4ccccc4)c3)n2)cc1 [compound 38, N-(3-benzylphenyl)-4-(4-chlorophenyl)thiazol-2-amine]	< 1000	–
Fc1ccc(-c2csc(Nc3ccc(Cc4ccccc4)cc3)n2)cc1 [compound 39, N-(4-benzylphenyl)-4-(4-fluorophenyl)thiazol-2-amine]	> 10000	–
Clc1ccc(-c2csc(Nc3ccc(Cc4ccccc4)cc3)n2)cc1Cl [compound 40, N-(4-benzylphenyl)-4-(3,4-dichlorophenyl)thiazol-2-amine]	> 10000	–
Fc1ccc(-c2csc(Nc3ccc(Cc4ccccc4)cc3)n2)c(F)c1 [compound 41, N-(4-benzylphenyl)-4-(2,4-difluorophenyl)thiazol-2-amine]	> 10000	–
